Experimental data from the supplement of paper PMC10307832.

Assays:
Assay in all cases: relative viability (nuclei count vs DMSO), 5 days (fraction); higher = more cells survive
[1] = compound: CN(c1ncccc1CNc1nc(Nc2ccc3c(c2)CC(=O)N3)ncc1C(F)(F)F)S(C)(=O)=O + Nc1ncn([C@H]2C[C@H](O)[C@@H](CO)O2)c(=O)n1 [Decitabine] (partner 2 µM)
Outline: (§1)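 After 5 days of treatment, lung cancer cells in 1536-well plates were fixed and stained in a single step (final 0.05% Triton X-100, 1% formaldehyde, 1 ug/ml Hoechst) and their nuclei counted on 4× images. Treatment had been applied by pin tool the day after seeding as one drug alone or as a fixed anchor-drug dose with five library-drug doses (not always all listed) in √10 steps. Relative viability is the nuclei count of treated wells divided by that of vehicle wells, and values are medians of duplicate plates.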

[2] = compound: CN(c1ncccc1CNc1nc(Nc2ccc3c(c2)CC(=O)N3)ncc1C(F)(F)F)S(C)(=O)=O + CCNC(=O)c1noc(-c2cc(C(C)C)c(O)cc2O)c1-c1ccc(CN2CCOCC2)cc1 [Luminespib] (partner 0.01 µM)
Outline: as §1

[3] = compound: CN(c1ncccc1CNc1nc(Nc2ccc3c(c2)CC(=O)N3)ncc1C(F)(F)F)S(C)(=O)=O + O=C(c1cc(Cc2n[nH]c(=O)c3ccccc23)ccc1F)N1CCN(C(=O)C2CC2)CC1 [Olaparib] (partner 8 µM)
Outline: as §1

[4] = compound: CN(c1ncccc1CNc1nc(Nc2ccc3c(c2)CC(=O)N3)ncc1C(F)(F)F)S(C)(=O)=O + CS(=O)(=O)CCNCc1ccc(-c2ccc3ncnc(Nc4ccc(OCc5cccc(F)c5)c(Cl)c4)c3c2)o1 [Lapatinib] (partner 2 µM)
Outline: as §1

Cell Line | relative viability ([1]; first compound 0.01 µM) | relative viability ([1]; first compound 0.03162 µM) | relative viability ([1]; first compound 0.1 µM) | relative viability ([1]; first compound 0.3162 µM) | relative viability ([1]; first compound 1 µM) | relative viability ([2]; first compound 0.01 µM) | relative viability ([2]; first compound 0.03162 µM) | relative viability ([2]; first compound 0.1 µM) | relative viability ([2]; first compound 0.3162 µM) | relative viability ([2]; first compound 1 µM) | relative viability ([3]; first compound 0.01 µM) | relative viability ([3]; first compound 0.03162 µM) | relative viability ([3]; first compound 0.1 µM) | relative viability ([3]; first compound 0.3162 µM) | relative viability ([3]; first compound 1 µM) | relative viability ([4]; first compound 0.01 µM) | relative viability ([4]; first compound 0.03162 µM) | relative viability ([4]; first compound 0.1 µM) | relative viability ([4]; first compound 0.3162 µM) | relative viability ([4]; first compound 1 µM)
NCI-H838 | 0.46 | 0.472 | 0.5 | 0.444 | 0.397 | 0.409 | 0.255 | 0.242 | 0.31 | 0.263 | 0.736 | 0.809 | 0.725 | 0.55 | 0.43 | 0.958 | 1.23 | 0.981 | 0.753 | 0.638
SW 1573 | 0.583 | 0.492 | 0.469 | 0.657 | 0.68 | 0.726 | 0.195 | 0.289 | 0.311 | 0.189 | 0.491 | 0.682 | 0.443 | 0.517 | 0.398 | 1.18 | 1.09 | 1.21 | 1.27 | 1.08
PC-14 | 0.197 | 0.225 | 0.254 | 0.245 | 0.269 | 0.233 | 0.15 | 0.192 | 0.176 | 0.236 | 0.38 | 0.282 | 0.271 | 0.261 | 0.243 | 0.366 | 0.373 | 0.292 | 0.323 | 0.33
LK-2 | 0.287 | 0.294 | 0.31 | 0.308 | 0.292 | 0.175 | 0.174 | 0.165 | 0.201 | 0.235 | 0.807 | 0.846 | 0.615 | 0.639 | 0.542 | 1.16 | 1.21 | 1.02 | 0.984 | 1
HCC-78 | 0.755 | 0.699 | 0.719 | 0.636 | 0.697 | – | – | – | – | – | 0.856 | 0.999 | 0.783 | 0.797 | 0.714 | 1.09 | 0.748 | 0.708 | 0.713 | 0.329
HCC-366 | 0.332 | 0.369 | 0.327 | 0.354 | 0.307 | – | – | – | – | – | 0.351 | 0.376 | 0.347 | 0.292 | 0.352 | 1 | 1.11 | 1.05 | 1.06 | 0.971
LCLC-103H | 0.68 | 0.673 | 0.697 | 0.672 | 0.684 | 0.754 | 0.927 | 0.918 | 0.892 | 0.752 | 0.724 | 0.742 | 0.78 | 0.693 | 0.669 | – | – | – | – | –
NCI-H1563 | – | – | – | – | – | 0.538 | 0.528 | 0.53 | 0.482 | 0.547 | – | – | – | – | – | 0.906 | 0.839 | 0.857 | 0.942 | 1.07
EBC-1 | – | – | – | – | – | – | – | – | – | – | 0.71 | 0.649 | 0.706 | 0.634 | 0.58 | 0.217 | 0.187 | 0.248 | 0.204 | 0.2
Calu-6 | – | – | – | – | – | – | – | – | – | – | 0.581 | 0.581 | 0.535 | 0.498 | 0.453 | 1.05 | 1.12 | 1 | 1 | 0.912
